# Assay results reported in PubChem BioAssay (NCI).
#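 Values below derive from 48-hour exposures of cells grown in 96-well plates, with endpoints linearly interpolated between the two concentrations bracketing the appropriate inhibition level. GI50 marks 50% less growth. TGI: concentration producing complete growth inhibition.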
# How the values were obtained:
# Assay in all cases: growth of human tumour cells (NCI), 48 h
# [1] = test system: M14 melanoma
# [2] = test system: HOP-92 NSCLC
# [3] = test system: MDA-MB-435
# [4] = test system: EKVX NSCLC
# [5] = test system: UO-31 renal
# [6] = test system: SW-620 colon
# [7] = test system: SN12C renal
# [8] = test system: MOLT-4 leukemia
# [9] = test system: NCI-H226 lung
# [10] = test system: OVCAR-4 ovarian
# [11] = test system: UACC-62 melanoma
# [12] = test system: OVCAR-5 ovarian
# [13] = test system: KM12 colon
# [14] = test system: SR leukemia
# [15] = test system: CCRF-CEM leukemia
# [16] = test system: 786-0 renal
# [17] = test system: HCT-116 colon
# [18] = test system: UACC-257 melanoma
# [19] = test system: HCC-2998 colon
# [20] = test system: ACHN renal
# [21] = test system: SK-MEL-28 melanoma
# [22] = test system: BT-549 breast
# [23] = test system: SNB-75 CNS
# [24] = test system: OVCAR-8 ovarian
# [25] = test system: SK-MEL-5 melanoma
# [26] = test system: A549 NSCLC
# [27] = test system: NCI/ADR-RES ovarian
# [28] = test system: K-562 leukemia
# [29] = test system: SNB-19 CNS
# [30] = test system: HL-60(TB) leukemia
# [31] = test system: NCI-H460 lung
# [32] = test system: DU-145 prostate
# [33] = test system: COLO 205 colon
# [34] = test system: MCF7 breast
# [35] = test system: NCI-H522 lung
# [36] = test system: NCI-H23 lung
# [37] = test system: SF-539 CNS
# [38] = test system: CAKI-1 renal
# [39] = test system: LOX IMVI melanoma
# [40] = test system: HT29 colon
# [41] = test system: IGROV1 ovarian
# [42] = test system: MALME-3M melanoma
# [43] = test system: RXF 393 renal
# [44] = test system: T-47D breast
# [45] = test system: HCT-15 colon
# [46] = test system: U251 CNS
# [47] = test system: SF-268 CNS
# [48] = test system: A498 renal
# [49] = test system: PC-3 prostate
# [50] = test system: HOP-62 NSCLC
# [51] = test system: TK-10 renal
# [52] = test system: MDA-MB-231 breast
# [53] = test system: SK-OV-3 ovarian
# [54] = test system: HS 578T breast
# [55] = test system: SK-MEL-2 melanoma
# [56] = test system: OVCAR-3 ovarian
# [57] = test system: SF-295 CNS
# [58] = test system: RPMI-8226 leukemia
structure (smiles),measurement,setting,value
COc1cc(/C=C2\N=C(c3ccccc3)N(c3cc4cc(Sc5ccccc5)ccc4[nH]3)C2=O)ccc1O,TGI,[1],> 50 µM
same,TGI,[2],> 50 µM
same,TGI,[3],5.56 µM
same,TGI,[4],> 50 µM
same,TGI,[5],> 50 µM
same,TGI,[6],> 50 µM
same,TGI,[7],> 50 µM
same,TGI,[8],> 50 µM
same,TGI,[9],> 50 µM
same,TGI,[10],> 50 µM
same,TGI,[11],> 50 µM
same,TGI,[12],> 50 µM
same,TGI,[13],> 50 µM
same,TGI,[14],20.4 µM
same,TGI,[15],> 50 µM
same,TGI,[16],> 50 µM
same,TGI,[17],> 50 µM
same,TGI,[18],> 50 µM
same,TGI,[19],> 50000 nM
same,TGI,[20],> 50 µM
same,TGI,[21],> 50 µM
same,TGI,[22],> 50 µM
same,TGI,[23],> 50 µM
same,TGI,[24],> 50 µM
same,TGI,[25],> 50 µM
same,TGI,[26],> 50 µM
same,TGI,[27],36.1 µM
same,TGI,[28],> 50 µM
same,TGI,[29],> 50 µM
same,TGI,[30],4.19 µM
same,TGI,[31],> 50 µM
same,TGI,[32],> 50 µM
same,TGI,[33],> 50 µM
same,TGI,[34],> 50 µM
same,TGI,[35],> 50 µM
same,TGI,[36],> 50 µM
same,TGI,[37],> 50 µM
same,TGI,[38],> 50 µM
same,TGI,[39],> 50 µM
same,TGI,[40],> 50 µM
same,TGI,[41],> 50 µM
same,TGI,[42],> 50 µM
same,TGI,[43],27.4 µM
same,TGI,[44],> 50 µM
same,TGI,[45],> 50 µM
CCOC1=C/C(=N\Nc2ccc([N+](=O)[O-])cc2)CCC1,TGI,[46],54.1 µM
same,TGI,[1],> 100 µM
same,TGI,[2],> 100 µM
same,TGI,[3],> 100 µM
same,TGI,[4],> 100 µM
same,TGI,[5],35.1 µM
same,TGI,[47],44.9 µM
same,TGI,[6],> 100 µM
same,TGI,[7],> 100 µM
same,TGI,[8],> 100 µM
same,TGI,[9],> 100 µM
same,TGI,[10],> 100 µM
same,TGI,[11],67.4 µM
same,TGI,[12],> 100 µM
same,TGI,[13],> 100 µM
same,TGI,[14],> 100 µM
same,TGI,[16],> 100 µM
same,TGI,[17],> 100 µM
same,TGI,[18],> 100 µM
same,TGI,[20],34.8 µM
same,TGI,[21],72.6 µM
same,TGI,[48],> 100000 nM
same,TGI,[22],43.8 µM
same,TGI,[23],73.1 µM
same,TGI,[24],> 100 µM
same,TGI,[25],73.3 µM
same,TGI,[49],> 100000 nM
same,TGI,[26],> 100 µM
same,TGI,[27],> 100 µM
same,TGI,[50],> 100000 nM
same,TGI,[51],> 100000 nM
same,TGI,[28],> 100 µM
same,TGI,[29],> 100 µM
same,TGI,[52],84.6 µM
same,TGI,[30],> 100 µM
same,TGI,[31],> 100 µM
same,TGI,[32],> 100 µM
same,TGI,[33],51.3 µM
same,TGI,[53],> 100 µM
same,TGI,[34],> 100 µM
same,TGI,[35],23.4 µM
same,TGI,[36],94.1 µM
same,TGI,[37],> 100 µM
same,TGI,[38],> 100 µM
same,TGI,[39],> 100 µM
same,TGI,[40],67.9 µM
same,TGI,[54],> 100 µM
same,TGI,[41],40.7 µM
same,TGI,[42],> 100 µM
same,TGI,[43],63.1 µM
same,TGI,[55],58.1 µM
same,TGI,[45],57.3 µM
same,TGI,[56],> 100000 nM
same,TGI,[57],> 100000 nM
same,TGI,[58],> 100000 nM
CCCCC[C@H]1C/C=C2/C(=O)C=C[C@@H]2C/C=C\CCCC(=O)O1,GI50,[46],116 nM
same,TGI,[46],0.305 µM
same,GI50,[1],163 nM
same,TGI,[1],5.1 µM
same,GI50,[2],577 nM
same,TGI,[2],2.18 µM
same,GI50,[3],169 nM
same,TGI,[3],0.588 µM
same,GI50,[4],172 nM
same,TGI,[4],1.97 µM
same,GI50,[5],90.2 nM
same,TGI,[5],0.171 µM
same,GI50,[47],190 nM
same,TGI,[47],5.94 µM
same,GI50,[6],177 nM
same,TGI,[6],1.06 µM
same,GI50,[7],180 nM
same,TGI,[7],2.44 µM
same,GI50,[8],143 nM
same,TGI,[8],1.06 µM
same,GI50,[9],90.4 nM
same,TGI,[9],0.18 µM
same,GI50,[10],189 nM
same,TGI,[10],5.94 µM
same,GI50,[12],221 nM
same,TGI,[12],2.73 µM
same,GI50,[14],124 nM
same,TGI,[14],50 µM
same,GI50,[15],106 nM
same,TGI,[15],5 µM
same,GI50,[16],164 nM
same,TGI,[16],0.489 µM
same,GI50,[17],90.5 nM
same,TGI,[17],0.232 µM
same,GI50,[18],105 nM
same,TGI,[18],0.346 µM
same,GI50,[19],96 nM
same,TGI,[19],179 nM
same,GI50,[20],98.7 nM
same,TGI,[20],0.202 µM
same,GI50,[21],155 nM
same,TGI,[21],0.705 µM
same,GI50,[48],193 nM
same,TGI,[48],878 nM
same,GI50,[22],147 nM
same,TGI,[22],0.468 µM
same,GI50,[23],227 nM
same,TGI,[23],1.98 µM
same,GI50,[24],149 nM
same,TGI,[24],5.12 µM
same,GI50,[25],84.4 nM
same,TGI,[25],0.168 µM
same,GI50,[49],165 nM
same,TGI,[49],844 nM
same,GI50,[26],115 nM
same,TGI,[26],0.313 µM
same,GI50,[27],181 nM
same,TGI,[27],1.13 µM
same,GI50,[50],129 nM
same,TGI,[50],341 nM
same,GI50,[51],171 nM
same,TGI,[51],410 nM
same,GI50,[28],136 nM
same,TGI,[28],22 µM
same,GI50,[29],479 nM
same,TGI,[29],7.45 µM
same,GI50,[52],212 nM
same,TGI,[52],6.39 µM
same,GI50,[30],120 nM
same,TGI,[30],0.343 µM
same,GI50,[31],156 nM
same,TGI,[31],5.38 µM
same,GI50,[32],169 nM
same,TGI,[32],1.94 µM
same,GI50,[33],113 nM
same,TGI,[33],0.256 µM
same,GI50,[53],364 nM
same,TGI,[53],6.11 µM
same,GI50,[34],88.4 nM
same,TGI,[34],5.44 µM
same,GI50,[35],93.6 nM
same,TGI,[35],0.236 µM
same,GI50,[36],160 nM
same,TGI,[36],0.713 µM
same,GI50,[37],160 nM
same,TGI,[37],0.67 µM
same,GI50,[39],89.9 nM
same,TGI,[39],0.18 µM
same,GI50,[40],128 nM
same,TGI,[40],0.278 µM
same,GI50,[54],403 nM
same,TGI,[54],16.8 µM
same,GI50,[41],209 nM
same,TGI,[41],1.43 µM
same,GI50,[42],500 nM
same,TGI,[42],5.02 µM
same,GI50,[43],94.4 nM
same,TGI,[43],0.223 µM
same,GI50,[55],114 nM
same,TGI,[55],0.296 µM
same,GI50,[45],93.7 nM
same,TGI,[45],0.26 µM
same,GI50,[56],182 nM
same,TGI,[56],664 nM
same,GI50,[57],123 nM
same,TGI,[57],298 nM
same,GI50,[58],117 nM
same,TGI,[58],366 nM
